One assay has as its target BRD4 (Homo sapiens, UniProt O60885). In words: HTRF binding assay (cell-free, protein and peptide).
In the next assay the target is T1, BRD2 (Homo sapiens, UniProt P25440).
T1 construct: BRD2(1,2)
Described as above.

Structures are written as SMILES.

T1 sequence (P25440 whole entry): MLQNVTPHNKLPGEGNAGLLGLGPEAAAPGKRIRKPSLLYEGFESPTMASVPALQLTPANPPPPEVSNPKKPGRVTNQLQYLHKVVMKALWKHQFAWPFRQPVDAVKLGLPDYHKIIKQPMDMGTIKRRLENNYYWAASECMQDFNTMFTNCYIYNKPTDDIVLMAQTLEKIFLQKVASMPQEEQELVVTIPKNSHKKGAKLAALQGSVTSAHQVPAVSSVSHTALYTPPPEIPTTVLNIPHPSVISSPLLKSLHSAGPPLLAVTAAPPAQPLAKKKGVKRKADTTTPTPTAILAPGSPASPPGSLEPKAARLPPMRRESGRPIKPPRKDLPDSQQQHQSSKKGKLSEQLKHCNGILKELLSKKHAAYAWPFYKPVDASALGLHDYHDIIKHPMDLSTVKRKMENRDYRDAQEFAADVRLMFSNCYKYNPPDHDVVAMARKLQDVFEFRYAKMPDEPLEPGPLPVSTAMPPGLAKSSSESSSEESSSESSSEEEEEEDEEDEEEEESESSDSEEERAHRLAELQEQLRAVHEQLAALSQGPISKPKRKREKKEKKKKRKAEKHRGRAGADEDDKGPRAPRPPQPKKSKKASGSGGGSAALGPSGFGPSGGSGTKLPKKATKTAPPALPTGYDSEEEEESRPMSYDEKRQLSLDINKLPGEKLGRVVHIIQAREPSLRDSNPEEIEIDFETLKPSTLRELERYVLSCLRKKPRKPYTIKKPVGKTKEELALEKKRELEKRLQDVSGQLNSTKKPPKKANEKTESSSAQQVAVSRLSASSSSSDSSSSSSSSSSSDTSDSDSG

With `Cc1nnn(C)c1-c1cnc2c3ccc(C(C)(C)O)cc3n([C@H](c3ccccc3)C3CCOCC3)c2c1` [BMS-986158], the IC50 on BRD4 was found to be 2.75 nM; on BRD2, 1.17 nM.

(Values after paper PMC8952190, “Bromodomain and Extra-Terminal Inhibitor BMS-986158 Reverses Latent HIV-1 Infection In Vitro and Ex Vivo by Increasing CDK9 Phosphorylation and Recruitment” (Pharmaceuticals, 2022).)
